In patent publication US20180027813A1, “Use of an agent to control resistant rodents” (priority 2015, published 2018):

Legend:
[1] = system: resistant rat strain "Westphalia" (VKORC1 Y139C); assay: Laboratory feeding tests with single anticoagulants; assay type: in vivo; settings: feed baits with one active ingredient
Description: The resistant rat strain “Westphalia”, characterized by the VKORC1 polymorphism Y139C, is resistant to the second-generation anticoagulants bromadiolone and difenacoum, and also to the first-generation active ingredients. Feed baits containing one of these active ingredients in the authorized concentration are not effective against animals of this strain.

[2] = system: brown rat VKORC1 strain Y139F; parameters: key: X = Strain exhibits a practical resistance to:; settings: cited from earlier work
[3] = system: brown rat VKORC1 strain L120Q Berkshire; parameters: key: X = Strain exhibits a practical resistance to:; settings: cited from earlier work
[4] = system: brown rat VKORC1 strain L128Q; parameters: key: X = Strain exhibits a practical resistance to:; settings: cited from earlier work
[5] = system: brown rat (Rattus norvegicus) strain Y139F; settings: BCR resistance test; cited from earlier work
[6] = system: brown rat (Rattus norvegicus) strain Y139C; settings: BCR resistance test; cited from earlier work
[7] = system: brown rat VKORC1 strain Y139C; parameters: key to Practical resistance of the strain: X = Strain exhibits a practical resistance to:; settings: cited from earlier work; for Sensitivity of animals with VKORC1 Tyr139Cys (in words): Y139C brown rats and house mice, difenacoum in rats only; for Practical resistance of the strain / Resistance in laboratory and field experiments (in words): strain Y139C
[8] = system: brown rat (Rattus norvegicus) strain Y139S; settings: determined on the basis of LD50; cited from earlier work
[9] = system: brown rat VKORC1 strain Y139S; parameters: key to Practical resistance of the strain: X = Strain exhibits a practical resistance to:; settings: cited from earlier work; for Tolerance / practical resistance (in words): strain Y139S (Wales); for Practical resistance of the strain: strain Y139S
[10] = system: brown rat (Rattus norvegicus) strain L120Q Hampshire; settings: BCR resistance test; cited from earlier work
[11] = system: brown rats of the resistant strain Y139C; assay: Feeding experiment with brown rats of the resistant strain Y139C (Example 1); assay type: in vivo, brown rat; settings: for Mortality (in words): resistant rats
Procedure: A cholecalciferol concentration of 100 mg/kg is enough to make it possible to achieve mortality rates of up to 100% (see the examples).
[…] received feed baits, as described below, over a period of 4 days. Consumption and mortality were determined afterwards. One group (6 rats, Group 1) was fed a feed bait consisting of coumatetralyl (375 mg/kg) and cholecalciferol (100 mg/kg). The other group (Group 2) was fed coumatetralyl on its own (375 mg/kg). All animals consumed the feed baits except for one animal from Group 2. Consumption was highest during the first 24 hours. On the third and fourth day, there was only little consumption. […] Two males each consumed approximately 47 mg/kg coumatetralyl and 12.5 mg/kg cholecalciferol (based on the body weight). The females consumed from 50 to 79 mg/kg coumatetralyl and from 13 to 21 mg/kg cholecalciferol (based in each case on the body weight). In Group 2, no mortality was observed, although the animals consumed 94 mg/kg coumatetralyl (mean value based on the body weight).

[12] = system: rats caught on the farm (strain Y139C area); assay: Blood coagulation test with coumatetralyl on rats caught on the farm; assay type: in vivo, rat; settings: blood coagulation test before control
Description: The term “resistance(s)” in the context of the invention refers to “practical resistance”, characterized in that the rodenticide in question no longer achieves sufficient biological efficacy even with proper use and good acceptance of the bait by the rodents (see also Greaves—1994, Buckle A. P. and Smith R. H. eds. “Rodent Pests and their Control”, CABI, Wallingford, Oxon, UK, pages 197-217). A person skilled in the art can make a clear and unambiguous assessment in accordance with this definition as to whether a practical resistance is present or not. In general, the degree of “resistance” can be described by specifying a resistance factor. The resistance factor (RF) is usually calculated on the basis of the lethal dose (LD50) or of the effective dose (ED50). […] LD50 and ED50 are each determined experimentally for each strain. […] Until the 1980s, RFs were determined on the basis of the LD50. This method was later replaced by blood coagulation tests (BCR resistance tests), by means of which the ED50 can be determined more accurately (Prescott et al. 2007: A standardised BCR-resistance test for all anticoagulant rodenticides. Int. J. Pest Mgt. 53 (4), 265-272). Therefore, it is preferred according to the invention that RF be calculated via the quotient formed from the ED50 of the resistant strain and of a sensitive strain considered to be the reference. […]

Row | SMILES | Mortality [1] | Practical resistance of the strain [2] | Practical resistance of the strain [3] | Practical resistance of the strain [4] | Resistance factor (RF) for bromadiolone [5] | Resistance factor (RF) for bromadiolone [6] | Sensitivity of animals with VKORC1 Tyr139Cys (in words) [7] | Practical resistance of the strain [7] | Resistance in laboratory and field experiments (in words) [7] | Resistance factor (RF) for bromadiolone [8] | Tolerance / practical resistance (in words) [9] | Resistance factor (RF) for bromadiolone [10] | Practical resistance of the strain [9] | Mortality (in words) ([11]; coumatetralyl by itself) | Mortality ([11]; feed baits over 4 days, 6 rats of strain Y139C per group) | Share of rats on the farm resistant for coumatetralyl [12] | Mortality (in words) ([11]; cholecalciferol by itself at 100 mg/kg)
1 | O=c1oc2ccccc2c(O)c1C(CC(O)c1ccc(-c2ccc(Br)cc2)cc1)c1ccccc1 (stereo not drawn) [bromadiolone] | no mortality | X | X | X | 7-9 | 15-17 | virtually completely insensitive | X | resistant | 2.7-6.9 | no practical resistance | 10-14 | – | – | – | – | –
2 | O=C1c2ccccc2C(=O)C1C(=O)C(c1ccccc1)c1ccc(Cl)cc1 (stereo not drawn) [chlorophacinone, (1′-p-chlorophenyl-1′-phenyl)-2-acetylindane-1,3-dione] | – | X | X | X | – | – | – | X | – | – | – | – | X | – | – | – | –
3 | O=c1oc2ccccc2c(O)c1C1CCCc2ccccc21 (stereo not drawn) [coumatetralyl, 3-(1′,2′,3′,4′-tetrahydro-1′-naphthyl)-4-hydroxycoumarin] | no mortality | X | X | X | – | – | virtually completely insensitive | X | – | – | – | – | X | does not cause mortality | no mortality | approximately 46% | –
4 | CC(=O)CC(c1ccccc1)c1c(O)c2ccccc2oc1=O (stereo not drawn) [warfarin, (1-phenyl-2-acetyl)-3-ethyl-4-hydroxycoumarin] | – | X | X | X | – | – | virtually completely insensitive | X | – | – | somewhat more tolerant | – | X | – | – | – | –
5 | O=c1oc2ccccc2c(O)c1C1CC(c2ccc(-c3ccccc3)cc2)Cc2ccccc21 (stereo not drawn) [difenacoum, 3-(3′-paradiphenylyl-1′,2′,3′,4′-tetrahydro-1′-naphthyl)-4-hydroxycoumarin] | – | – | X | – | – | – | virtually completely insensitive | X | resistant | – | – | – | – | – | – | – | –
6 | C=C1CC[C@H](O)C/C1=C/C=C1\CCC[C@]2(C)[C@@H]([C@H](C)CCCC(C)C)CC[C@@H]12 [cholecalciferol] | – | – | – | – | – | – | – | – | – | – | – | – | – | – | – | – | does not cause mortality
